From patent publication US20230365592A1 (Agios Pharmaceuticals, Inc., priority 2022, published 2023)

Biological target: T1, human PAH with the R408W mutation (Homo sapiens, UniProt P00439, R408W)
T1 construct: expressed in transfected cells
T1 sequence (P00439 1-452 R408W): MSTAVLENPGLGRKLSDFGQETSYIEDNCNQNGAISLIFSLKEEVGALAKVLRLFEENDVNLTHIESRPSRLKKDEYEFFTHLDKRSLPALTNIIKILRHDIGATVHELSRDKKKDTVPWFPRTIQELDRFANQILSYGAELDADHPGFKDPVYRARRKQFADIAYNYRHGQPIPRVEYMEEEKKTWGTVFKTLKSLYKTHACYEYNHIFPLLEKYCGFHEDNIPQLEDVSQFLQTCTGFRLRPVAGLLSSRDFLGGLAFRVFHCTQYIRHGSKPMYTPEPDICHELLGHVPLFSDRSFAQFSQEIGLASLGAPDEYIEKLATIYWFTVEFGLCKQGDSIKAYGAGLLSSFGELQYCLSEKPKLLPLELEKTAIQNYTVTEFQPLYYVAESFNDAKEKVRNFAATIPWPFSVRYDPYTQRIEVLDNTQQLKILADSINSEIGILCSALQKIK
Assay: Cell Based Phenylalanine Flux Assay;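 further: after compound treatment, cells received sepiapterin plus isotope-labelled Phenylalanine for 4 hours, then labelled Tyrosine in the medium was quantified, 10-point 2-fold dilution series run in duplicate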
Settings: A375 cells expressing human R408W PAH; 24 hrs compound incubation; 13C-Tyrosine by LC-MS; average where tested multiple times; read-out: AC50

Compound | AC50
O=C(c1nnc(-c2cnccn2)o1)N1CCc2[nH]cnc2[C@@H]1c1cc2ccccn2n1 [Example 1363, (R)-(5-(pyrazin-2-yl)-1,3,4-oxadiazol-2-yl)(4-(pyrazolo[1,5-a]pyridin-2-yl)-6,7-dihydro-1H-imidazo[4,5-c]pyridin-5(4H)-yl)methanone] | > 5000 nM
Cc1c(-c2nnc(C(=O)N3CCc4[nH]cnc4[C@H]3c3cc4cccc(C(F)F)n4n3)o2)cnn1C [Example 1366, (S)-(4-(7-(difluoromethyl)pyrazolo[1,5-a]pyridin-2-yl)-6,7-dihydro-1H-imidazo[4,5-c]pyridin-5(4H)-yl)(5-(1,5-dimethyl-1H-pyrazol-4-yl)-1,3,4-oxadiazol-2-yl)methanone] | < 500 nM
Cn1nc(C(F)F)cc1C(=O)N1CCc2[nH]cnc2[C@@H]1c1cc2c(Cl)cccn2n1 [Example 1369, (R)-(4-(4-chloropyrazolo[1,5-a]pyridin-2-yl)-6,7-dihydro-1H-imidazo(4,5-c]pyridin-5(4H)-yl)(3-(difluoromethyl)-1-methyl-1H-pyrazol-5-yl)methanone] | 1000 to 5000 nM
Cn1nc(C(F)F)cc1C(=O)N1CCc2[nH]cnc2[C@H]1c1cc2c(C(F)(F)F)cccn2n1 [Example 1370, (S)-(3-(difluoromethyl)-1-methyl-1H-pyrazol-5-yl)(4-(4-(trifluoromethyl)pyrazolo[1,5-a]pyridin-2-yl)-6,7-dihydro-1H-imidazo[4,5-c]pyridin-5(4H)-yl)methanone] | < 500 nM
O=C(c1nnc(-c2cnn(C(F)F)c2)o1)N1CCc2[nH]cnc2[C@H]1c1cc2c(C(F)F)cccn2n1 [Example 1374, (S)-(5-(1-(difluoromethyl)-1H-pyrazol-4-yl)-1,3,4-oxadiazol-2-yl)(4-(4-(difluoromethyl)pyrazolo[1,5-a]pyridin-2-yl)-6,7-dihydro-1H-imidazo[4,5-c]pyridin-5(4H)-yl)methanone] | < 500 nM
O=C(c1nnc(-c2cnn(C(F)F)c2)o1)N1CCc2[nH]cnc2[C@@H]1c1cc2c(C(F)F)cccn2n1 [Example 1375, (R)-(5-(1-(difluoromethyl)-1H-pyrazol-4-yl)-1,3,4-oxadiazol-2-yl)(4-(4-(difluoromethyl)pyrazolo[1,5-a]pyridin-2-yl)-6,7-dihydro-1H-imidazo[4,5-c]pyridin-5(4H)-yl)methanone] | > 5000 nM
O=C(c1nnc(-c2ccn(C(F)F)n2)o1)N1CCc2[nH]cnc2[C@H]1c1cc2c(C(F)F)cccn2n1 [Example 1377, (S)-(5-(1-(difluoromethyl)-1H-pyrazol-3-yl)-1,3,4-oxadiazol-2-yl)(4-(4-(difluoromethyl)pyrazolo[1,5-a]pyridin-2-yl)-6,7-dihydro-1H-imidazo[4,5-c]pyridin-5(4H)-yl)methanone] | < 500 nM
CC1(c2nnc(C(=O)N3CCc4[nH]cnc4[C@H]3c3cc4c(F)cccn4n3)o2)CC1 [Example 1378, (S)-(4-(4-fluoropyrazolo[1,5-a]pyridin-2-yl)-6,7-dihydro-1H-imidazo[4,5-c]pyridin-5(4H)-yl)(5-(1-methylcyclopropyl)-1,3,4-oxadiazol-2-yl)methanone] | < 500 nM
CC1(c2nnc(C(=O)N3CCc4[nH]cnc4[C@@H]3c3cc4c(F)cccn4n3)o2)CC1 [Example 1379, (R)-(4-(4-fluoropyrazolo[1,5-a]pyridin-2-yl)-6,7-dihydro-1H-imidazo[4,5-c]pyridin-5(4H)-yl)(5-(1-methylcyclopropyl)-1,3,4-oxadiazol-2-yl)methanone] | > 5000 nM
O=C(c1nnc(-c2ncccn2)o1)N1CCc2[nH]cnc2[C@@H]1c1cc2c(C(F)(F)F)cccn2n1 [Example 1380, (R)-(5-(pyrimidin-2-yl)-1,3,4-oxadiazol-2-yl)(4-(4-(trifluoromethyl)pyrazolo[1,5-a]pyridin-2-yl)-6,7-dihydro-1H-imidazo[4,5-c]pyridin-5(4H)-yl)methanone] | 1000 to 5000 nM
O=C(c1nnc(-c2ncccn2)o1)N1CCc2[nH]cnc2[C@H]1c1cc2c(C(F)(F)F)cccn2n1 [Example 1381, (S)-(5-(pyrimidin-2-yl)-1,3,4-oxadiazol-2-yl)(4-(4-(trifluoromethyl)pyrazolo[1,5-a]pyridin-2-yl)-6,7-dihydro-1H-imidazo[4,5-c]pyridin-5(4H)-yl)methanone] | 500 to 1000 nM
Cc1cccc(-c2nnc(C(=O)N3CCc4[nH]cnc4[C@@H]3c3cc4ccccn4n3)o2)n1 [Example 1383, (R)-(5-(6-methylpyridin-2-yl)-1,3,4-oxadiazol-2-yl)(4-(pyrazolo[1,5-a]pyridin-2-yl)-6,7-dihydro-1H-imidazo[4,5-c]pyridin-5(4H)-yl)methanone] | > 5000 nM
Cn1nc(C(F)F)cc1C(=O)N1CCc2[nH]cnc2[C@H]1c1cc2cccc(Cl)n2n1 [Example 1384, (S)-(4-(7-chloropyrazolo[1,5-a]pyridin-2-yl)-6,7-dihydro-1H-imidazo[4,5-c]pyridin-5(4H)-yl)(3-(difluoromethyl)-1-methyl-1H-pyrazol-5-yl)methanone] | < 500 nM

Second part, the compound after the results:

AC50 | Compound
< 500 nM | Cc1cccc2cc([C@@H]3c4nc[nH]c4CCN3C(=O)c3cc(C(F)F)nn3C)nn12 [Example 1388, (S)-(3-(difluoromethyl)-1-methyl-1H-pyrazol-5-yl)(4-(7-methylpyrazolo[1,5-a]pyridin-2-yl)-6,7-dihydro-1H-imidazo[4,5-c]pyridin-5(4H)-yl)methanone]
> 5000 nM | Cc1cccc2cc([C@H]3c4nc[nH]c4CCN3C(=O)c3cc(C(F)F)nn3C)nn12 [Example 1389, (R)-(3-(difluoromethyl)-1-methyl-1H-pyrazol-5-yl)(4-(7-methylpyrazolo[1,5-a]pyridin-2-yl)-6,7-dihydro-1H-imidazo[4,5-c]pyridin-5(4H)-yl)methanone]
500 to 1000 nM | O=C(c1nnc(C2CC2)o1)N1CCc2[nH]cnc2[C@H]1c1cc2cccc(C(F)F)n2n1 [Example 1390, (S)-(5-cyclopropyl-1,3,4-oxadiazol-2-yl)(4-(7-(difluoromethyl)pyrazolo[1,5-a]pyridin-2-yl)-6,7-dihydro-1H-imidazo[4,5-c]pyridin-5(4H)-yl)methanone]
1000 to 5000 nM | O=C(c1nnc(C2CC2)o1)N1CCc2[nH]cnc2[C@@H]1c1cc2cccc(C(F)F)n2n1 [Example 1391, (R)-(5-cyclopropyl-1,3,4-oxadiazol-2-yl)(4-(7-(difluoromethyl)pyrazolo[1,5-a]pyridin-2-yl)-6,7-dihydro-1H-imidazo[4,5-c]pyridin-5(4H)-yl)methanone]
1000 to 5000 nM | O=C(c1nnc(-c2ncccn2)o1)N1CCc2[nH]cnc2[C@@H]1c1cc2cccc(Cl)n2n1 [Example 1392, (R)-(4-(7-chloropyrazolo[1,5-a]pyridin-2-yl)-6,7-dihydro-1H-imidazo[4,5-c]pyridin-5(4H)-yl)(5-(pyrimidin-2-yl)-1,3,4-oxadiazol-2-yl)methanone]
< 500 nM | O=C(c1nnc(-c2ncccn2)o1)N1CCc2[nH]cnc2[C@H]1c1cc2cccc(Cl)n2n1 [Example 1393, (S)-(4-(7-chloropyrazolo[1,5-a]pyridin-2-yl)-6,7-dihydro-1H-imidazo[4,5-c]pyridin-5(4H)-yl)(5-(pyrimidin-2-yl)-1,3,4-oxadiazol-2-yl)methanone]
< 500 nM | Cc1ncccc1-c1nnc(C(=O)N2CCc3[nH]cnc3[C@H]2c2cc3c(C(F)F)cccn3n2)o1 [Example 1394, (S)-(4-(4-(difluoromethyl)pyrazolo[1,5-a]pyridin-2-yl)-6,7-dihydro-1H-imidazo[4,5-c]pyridin-5(4H)-yl)(5-(2-methylpyridin-3-yl)-1,3,4-oxadiazol-2-yl)methanone]
> 5000 nM | Cc1ncccc1-c1nnc(C(=O)N2CCc3[nH]cnc3[C@@H]2c2cc3c(C(F)F)cccn3n2)o1 [Example 1395, (R)-(4-(4-(difluoromethyl)pyrazolo[1,5-a]pyridin-2-yl)-6,7-dihydro-1H-imidazo[4,5-c]pyridin-5(4H)-yl)(5-(2-methylpyridin-3-yl)-1,3,4-oxadiazol-2-yl)methanone]
< 500 nM | Cc1cccc(-c2nnc(C(=O)N3CCc4[nH]cnc4[C@H]3c3cc4cccc(Cl)n4n3)o2)n1 [Example 1396, (S)-(4-(7-chloropyrazolo[1,5-a]pyridin-2-yl)-6,7-dihydro-1H-imidazo[4,5-c]pyridin-5(4H)-yl)(5-(6-methylpyridin-2-yl)-1,3,4-oxadiazol-2-yl)methanone]
1000 to 5000 nM | Cc1cccc(-c2nnc(C(=O)N3CCc4[nH]cnc4[C@@H]3c3cc4cccc(Cl)n4n3)o2)n1 [Example 1397, (R)-(4-(7-chloropyrazolo[1,5-a]pyridin-2-yl)-6,7-dihydro-1H-imidazo[4,5-c]pyridin-5(4H)-yl)(5-(6-methylpyridin-2-yl)-1,3,4-oxadiazol-2-yl)methanone]
1000 to 5000 nM | Cc1cccc(-c2nnc(C(=O)N3CCc4[nH]cnc4[C@@H]3c3cc4cccc(C)n4n3)o2)n1 [Example 1399, (R)-(4-(7-methylpyrazolo[1,5-a]pyridin-2-yl)-6,7-dihydro-1H-imidazo[4,5-c]pyridin-5(4H)-yl)(5-(6-methylpyridin-2-yl)-1,3,4-oxadiazol-2-yl)methanone]
< 500 nM | Cc1cccc(-c2nnc(C(=O)N3CCc4[nH]cnc4[C@H]3c3cc4cccc(C(F)(F)F)n4n3)o2)n1 [Example 1400, (S)-(5-(6-methylpyridin-2-yl)-1,3,4-oxadiazol-2-yl)(4-(7-(trifluoromethyl)pyrazolo[1,5-a]pyridin-2-yl)-6,7-dihydro-1H-imidazo[4,5-c]pyridin-5(4H)-yl)methanone]
